This is an account of results in patent publication US20230002324A1, “NAPHTHOQUINONE DERIVATIVES FOR TREATMENT OF OXIDATIVE STRESS DISORDERS” (PTC THERAPEUTICS, INC., priority 2019, published 2023).

Assay [1] has as its system Q7 cells (ST HDH Q7/7; immortalized mouse striatal cells). Briefly: Q7 Cystine Deprivation cell survival (rescue) assay. Conditions: Q7 cells, cystine-free medium, 18 h, Cell Titer Glo, 50% relative viability vs Vitamin K2 (1 micromolar), read-out: Q7 Cystine Deprivation Survival EC50. The assay is classed as cell-based. The essentials: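 Cells were seeded at 3,000/well and allowed to attach for 5 h at 33 °C. Wells were then washed twice with PBS and switched to cystine-free DMEM containing FBS, 4 mM L-glutamine, 1 mM pyruvate and 30 mg/L methionine to induce ferroptotic death. Compounds were scored for survival rescue.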
For orientation: ATP-based viability assays read luminescence as a measure of living cells.

The test system is the same in assay [2]. Briefly: Q7 RSL3 challenge cell survival (rescue) assay. To be noted: Q7 cells, RSL3 2 micromolar, 18 h, Cell Titer Glo, read-out: Q7 RSL3 Survival EC50. The assay is classed as cell-based. Put shortly:
(§1)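 Q7 (33° C.) or NHF (37° C.) cells, 3,000/well, attached 5 h, then test compounds at varying final concentrations followed within 15 min by RSL3 (2 micromolar final); 0.3% DMSO. Assay medium identical to growth medium.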

For assay [3], the system named is normal human fibroblasts (NHF, GM21811). Briefly: NHF GM21811 RSL3 challenge cell survival (rescue) assay. The assay is classed as cell-based. Conditions: Fibroblast, NHF cells, RSL3 2 micromolar, 48 h, Cell Titer Glo, read-out: NHF GM21811 RSL3 Survival EC50. Put shortly:
as §1

For assay [4], the target named is T1, CYP3A4 (Homo sapiens, UniProt P08684).
T1 construct: from tissue; host or cells: pooled human liver microsomes
As to the kind of experiment: CYP450 Inhibition Assay 1 (pooled human liver microsomes, midazolam). The assay is classed as in vitro ADME. Conditions: Table 3; HLM 0.05 mg/mL, midazolam 5 μM, 5 min. The protocol:
The CYP450 inhibition assay provides in vitro assessment of the inhibitory potential of the test compounds against cytochrome P450 enzymes. Selective substrates were incubated with pooled human liver microsomes (HLM) as single substrates. All assays employed 100 mM potassium phosphate buffer at pH 7.4.
The assays were performed in a 96-well PCR plate in a final volume of 140 μL at 37° C. Test compounds were evaluated at seven concentrations to obtain IC50 values, with a final concentration of 0.1% DMSO in the incubation (total organic solvent at 1% in the incubation). Reactions were initiated by the addition of NADPH. After the enzyme-specific incubation time had elapsed, an aliquot from that enzyme reaction was quenched in Acetonitrile with 0.2% Formic Acid. Supernatant from the quenched reactions was diluted with an equal volume of water, prior to analysis by LC-MS/MS.
All samples were analyzed on LC-MS/MS using an AB Sciex 6500+ instrument equipped with electrospray ionization source, coupled to a Shimadzu Nexera X2 system. Samples were separated using a Waters UPLC HSS T3, 1.8 μm column, 1×50 mm (catalog #186003535) at a flow rate of 200 μL/min. Injection volume was 2 μL.

For assay [5], the target named is T1, CYP3A4. Briefly: CYP450 Inhibition Assay 2 (pooled human liver microsomes, 5 concentrations). The class given is in vitro ADME. Conditions: Table 3; HLM 0.05 mg protein/mL, 10 min reaction. The procedure:
In an alternative experimental design, test compounds were evaluated at 5 concentrations in a 96 well assay plate. Initial combination with pooled human liver microsomes (0.05 mg protein/mL) was followed by a 5 minute incubation. […] The assay plate was incubated for an additional 30 minutes before the reaction was initiated with the addition of NADPH. After 10 minutes of reaction time, the reaction was quenched and samples were analyzed in a similar manner as described above.
For orientation: Liver microsomes are vesicles of endoplasmic reticulum, rich in cytochrome P450 enzymes.

T1 sequence (P08684 whole entry): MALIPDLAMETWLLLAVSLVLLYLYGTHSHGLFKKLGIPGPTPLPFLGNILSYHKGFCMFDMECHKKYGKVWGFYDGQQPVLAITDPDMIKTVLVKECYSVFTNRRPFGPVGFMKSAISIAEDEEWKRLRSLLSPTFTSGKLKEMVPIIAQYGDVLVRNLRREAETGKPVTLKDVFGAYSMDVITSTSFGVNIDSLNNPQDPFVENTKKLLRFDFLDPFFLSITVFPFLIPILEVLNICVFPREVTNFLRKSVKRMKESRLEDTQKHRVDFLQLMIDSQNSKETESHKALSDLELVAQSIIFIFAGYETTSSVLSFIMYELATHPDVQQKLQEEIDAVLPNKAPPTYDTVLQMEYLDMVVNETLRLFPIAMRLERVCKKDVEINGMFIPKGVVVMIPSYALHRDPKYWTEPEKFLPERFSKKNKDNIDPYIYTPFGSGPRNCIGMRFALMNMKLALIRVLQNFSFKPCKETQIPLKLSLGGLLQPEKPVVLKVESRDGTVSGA

Usually EC50 stands for the concentration that produces a half-maximal response. By IC50 is commonly meant the concentration needed to halve the response being measured. Take `CC1=C(Cc2ccc(C(F)(F)F)cn2)C(=O)c2ccccc2C1=O` [Example 1, 2-methyl-3-((5-(trifluoromethyl)pyridin-2-yl)methyl)naphthalene-1,4-dione]: the EC50 in assay [1], in assay [2] and in assay [3] was less than 0.05 µM each time. Also, the IC50 against CYP3A4 [4] turned out to be 5.78 µM; on CYP3A4 [5], 35.7 µM.
